Laboratory results from ChEMBL document CHEMBL1142219, “Discovery of platencin, a dual FabF and FabH inhibitor with in vivo antibiotic properties” (Proc Natl Acad Sci U S A, 2007).
Converted amounts (≈) assume the structure as drawn. The source made the active and inactive calls. The calls are words filed in the database; no cut-off is given here.

What was measured:
Staphylococcus aureus [1] = experiment: Inhibition of Staphylococcus aureus FabF assessed as reduced accumulation of long chain beta-ketoacyl-ACP at 20 ug/ml by FabF/FabH PAGE elongation assay
Staphylococcus aureus [2] = experiment: Inhibition of Staphylococcus aureus FabF assessed as reduced accumulation of long chain beta-ketoacyl-ACP at 2 ug/ml by FabF/FabH PAGE elongation assay
[3] = Inhibition of Staphylococcus aureus FabH assessed as reduced accumulation of acetoacetyl-ACP by FabF/FabH PAGE elongation assay
Staphylococcus aureus [4] = experiment: Inhibition of fatty acid synthesis in Staphylococcus aureus in whole cell activity assay; format: functional, organism-based
Staphylococcus aureus [5] = experiment: Antibacterial activity against methicillin and linezolid-resistant Staphylococcus aureus; format: functional
Staphylococcus aureus [6] = experiment: Antibacterial activity against Staphylococcus aureus in presence of serum; format: functional
Enterococcus faecalis = experiment: Antibacterial activity against macrolide-resistant Enterococcus faecalis; format: functional
Staphylococcus aureus [7] = experiment: Antibacterial activity against methicillin and macrolide-resistant Staphylococcus aureus; format: functional
[8] = Inhibition of Staphylococcus aureus FabH assessed as reduced accumulation of long chain beta-ketoacyl-ACP by FabF/FabH PAGE elongation assay
Mus musculus = organism: Mus musculus; experiment: Toxicity in methicillin-sensitive Staphylococcus aureus infected mouse model at 150 ug/hr after 24 hrs; format: organism-based; conditions: in vivo
Enterococcus faecium = experiment: Antibacterial activity against vancomycin-resistant Enterococcus faecium; format: functional
Streptococcus pneumoniae [9] = experiment: Antibacterial activity against Streptococcus pneumoniae; format: functional
Streptococcus pneumoniae [10] = experiment: Inhibition of fatty acid synthesis in Streptococcus pneumoniae in whole cell activity assay; format: functional, organism-based
Escherichia coli [11] = experiment: Antibacterial activity against efflux negative-tolC mutant containing Escherichia coli; format: functional
Staphylococcus aureus [12] = experiment: Antibacterial activity against methicillin-sensitive Staphylococcus aureus infected mouse kidney assessed as log reduction of bacterial count at 150 ug/hr after 24 hrs; format: functional
HeLa = experiment: Cytotoxicity against human HeLa cells by MTT assay; format: functional, cell-based
Staphylococcus aureus [13] = experiment: Antibacterial activity against vancomycin-intermediate resistant Staphylococcus aureus; format: functional
Staphylococcus aureus [14] = experiment: Antibacterial activity against methicillin-sensitive Staphylococcus aureus; format: functional
Staphylococcus aureus [15] = experiment: Antibacterial activity against methicillin-resistant Staphylococcus aureus; format: functional
Escherichia coli [16] = experiment: Antibacterial activity against wild type Escherichia coli; format: functional
Candida albicans = experiment: Antifungal activity against Candida albicans; format: functional
[17] = Inhibition of Staphylococcus aureus FabF by direct binding assay
[18] = Toxicity in human RBC assessed as drug level causing hemolysis; format: cell-based; conditions: erythrocyte
[19] = biological target: T1, Malonyl CoA-acyl carrier protein transacylase (Staphylococcus aureus) (UniProt Q93QD4); experiment: Inhibition of Staphylococcus aureus FabD assessed as reduced malonyl-ACP levels
T1 sequence (whole entry): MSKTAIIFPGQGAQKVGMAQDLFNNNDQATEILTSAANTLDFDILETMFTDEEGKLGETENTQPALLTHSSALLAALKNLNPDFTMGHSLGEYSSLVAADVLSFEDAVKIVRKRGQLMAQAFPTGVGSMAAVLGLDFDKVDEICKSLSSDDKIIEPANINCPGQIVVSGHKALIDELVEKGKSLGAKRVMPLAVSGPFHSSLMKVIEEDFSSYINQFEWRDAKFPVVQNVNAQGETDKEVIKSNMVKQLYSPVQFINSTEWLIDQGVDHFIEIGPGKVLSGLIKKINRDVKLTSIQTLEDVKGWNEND

Staphylococcus aureus [20] = experiment: Antibacterial activity against Staphylococcus aureus expressing antisense fabF assessed as drug level causing >5 mm zone of inhibition after 18 hrs by agar diffusion two plate differential sensitivity antisense assay; format: functional
[21] = Inhibition of Staphylococcus aureus FabF assessed as reduced accumulation of acetoacetyl-ACP by FabF/FabH PAGE elongation assay
[22] = Inhibition of Staphylococcus aureus FabH by direct binding assay
Staphylococcus aureus [23] = experiment: Inhibition of RNA biosynthesis in Staphylococcus aureus upto 50 ug/ml in whole cell activity assay; format: functional, organism-based
Staphylococcus aureus [24] = experiment: Inhibition of cell wall biosynthesis in Staphylococcus aureus upto 50 ug/ml in whole cell activity assay; format: functional, organism-based
Staphylococcus aureus [25] = experiment: Inhibition of protein biosynthesis in Staphylococcus aureus upto 50 ug/ml in whole cell activity assay; format: functional, organism-based
[26] = Inhibition of Staphylococcus aureus FabF assessed as reduced accumulation of long chain beta-ketoacyl-ACP by FabF/FabH PAGE elongation assay
Staphylococcus aureus [27] = experiment: Inhibition of DNA biosynthesis in Staphylococcus aureus upto 50 ug/ml in whole cell activity assay; format: functional, organism-based

Compound	IC50 [3] [µM]	IC50 (Staphylococcus aureus [4]) [µg/mL]	MIC (Staphylococcus aureus [5]) [µg/mL]	MIC (Staphylococcus aureus [6]) [µg/mL]	MIC (Enterococcus faecalis) [µg/mL]	MIC (Staphylococcus aureus [7]) [µg/mL]	MIC (Enterococcus faecium) [µg/mL]	MIC (Streptococcus pneumoniae [9]) [µg/mL]	IC50 (Streptococcus pneumoniae [10]) [µg/mL]	MIC (Escherichia coli [11]) [µg/mL]	IC50 (HeLa) [µg/mL]	MIC (Staphylococcus aureus [13]) [µg/mL]	MIC (Staphylococcus aureus [14]) [µg/mL]	MIC (Staphylococcus aureus [15]) [µg/mL]	MIC (Escherichia coli [16]) [µg/mL]	MIC (Candida albicans) [µg/mL]	Activity [18] [µg/mL]	Activity [19]	Activity (Staphylococcus aureus [20]) [µg]	IC50 [22] [µM]	other results
O=C(O)c1cc2cc(OCc3c(Cl)cccc3Cl)ccc2n1Cc1cc2c(cc1Cl)OCO2	3.96	–	–	–	–	–	–	–	–	–	–	–	–	–	–	–	–	–	–	–	inhibition (Staphylococcus aureus [1]): 90%; inhibition (Staphylococcus aureus [2]): 50%
C=C1C[C@@]23C=CC(=O)[C@@](C)(CCC(=O)Nc4c(O)ccc(C(=O)O)c4O)[C@@H]2C[C@@H]1CC3 [PLATENCIN]	–	0.19 (≈ 0.447 µM)	1 (≈ 2.35 µM)	8	2 (≈ 4.7 µM)	1 (≈ 2.35 µM)	< 0.06	4 (≈ 9.4 µM)	2.7 (≈ 6.35 µM)	2 (≈ 4.7 µM)	> 100	0.5 (≈ 1.18 µM)	0.5 (≈ 1.18 µM)	1 (≈ 2.35 µM)	> 64	> 64	> 67	inactive	0.002	16.2	IC50 [8]: 9.17 µM; Activity (Mus musculus): Non-toxic; Activity (Staphylococcus aureus [12]): 3; IC50 [17]: 0.113 µM; IC50 [21]: 4.58 µM
C[C@@H]1[C@H](O)[C@@H](C)/C=C/C=C/C=C/C=C/C=C/C=C/C=C/[C@H](O[C@@H]2O[C@H](C)[C@@H](O)[C@H](N)[C@@H]2O)C[C@@H]2O[C@](O)(C[C@@H](O)C[C@@H](O)[C@H](O)CC[C@@H](O)C[C@@H](O)CC(=O)O[C@H]1C)C[C@H](O)[C@H]2C(=O)O [AMPHOTERICIN B]	–	–	–	–	–	–	–	–	–	–	–	–	–	–	–	–	2	–	–	–	–
CC(=O)NC[C@H]1CN(c2ccc(N3CCOCC3)c(F)c2)C(=O)O1 [LINEZOLID]	–	–	32 (≈ 94.9 µM)	–	–	–	2 (≈ 5.93 µM)	–	–	32 (≈ 94.9 µM)	> 100	–	–	–	> 64	> 64	> 67	–	–	–	–
CC12C[C@@]34C=CC(=O)[C@@](C)(CCC(=O)Nc5c(O)ccc(C(=O)O)c5O)C3[C@H](CC1C4)O2 (stereo partly specified) [PLATENSIMYCIN]	247	0.1 (≈ 0.227 µM)	1 (≈ 2.27 µM)	2	1 (≈ 2.27 µM)	0.5 (≈ 1.13 µM)	0.1 (≈ 0.227 µM)	1 (≈ 2.27 µM)	0.8 (≈ 1.81 µM)	16 (≈ 36.2 µM)	> 1000	0.5 (≈ 1.13 µM)	0.5 (≈ 1.13 µM)	0.5 (≈ 1.13 µM)	> 64	> 64	> 67	inactive	0.004	67	Activity (Staphylococcus aureus [23]): inactive; Activity (Staphylococcus aureus [24]): inactive; Activity (Staphylococcus aureus [25]): inactive; IC50 [26]: 0.29 µM; Activity (Staphylococcus aureus [27]): inactive
O=C(N[C@H](CO)[C@H](O)c1ccc([N+](=O)[O-])cc1)C(Cl)Cl [CHLORAMPHENICOL]	–	–	–	–	–	–	–	–	–	–	–	–	–	–	–	–	> 64	–	–	–	–
